Data published in patent publication US12295973B2 (Fred Hutchinson Cancer Center, priority 2017, dated 2025).
Where a SMILES comes first, the peptide text is derived from it. [ ]: non-standard residue; d: D form. The star is where a group is joined. dPhe(4-NHCONH2) = NC(=O)Nc1ccc(C[C@@H](N)C(=O)O)cc1; Dihydroorotyl(S) = O=C1C[C@@H](C(=O)*)NC(=O)N1; dPhe(4-Cl) = N[C@H](Cc1ccc(Cl)cc1)C(=O)O; Phe(4-NH2) = Nc1ccc(C[C@H](N)C(=O)O)cc1; d2Nal = N[C@H](Cc1ccc2ccccc2c1)C(=O)O; Lys(iPr) = CC(C)NCCCC[C@H](N)C(=O)O; d3Pal = N[C@H](Cc1cccnc1)C(=O)O

Columns and labels:
Format in all cases: in vivo, mouse
[1] = tested on: LT-HSCs; assay: Cell cycle status of LT-HSCs in Poly I:C and SL-TBI models, surgically castrated mice
Experimental: (§1) To further validate this hypothesis, two additional models were used to force HSCs out of their quiescence phase, Poly I:C and sub-lethal dose of total body irradiation (SL-TBI)^35,42,43. To eliminate any potential effects of downstream sex steroids on HSCs, all cohorts of mice in these studies had been surgically castrated.
Reagents: Degarelix (as acetate), a LHRH-Ant (Firmagon), was resuspended in sterile water for injection and administered S.C. to mice at a dose of 40 mg/kg. To evaluate the radiomitigative effect of LHRH-Ant on survival, mice were treated subcutaneously (S.C.) with a single injection of the LHRH-Ant or a saline control solution (PBS). Degarelix was purchased from the Memorial Sloan-Kettering Cancer Center Pharmacy. […] LH from human pituitary (SIGMA) was resuspended in PBS for in vitro studies. MDV3100 (selleckchem) was resuspended in a mixture of 45% PBS, 45% PEG and 10% DMSO and administered daily to mice by oral gavage at a dose of 10 mg/kg. 5-FU (InvivoGen) was administered to mice intraperitoneally (I.P.) at a dose of 150 mg/kg once every 7 days consecutively for 3 times as previously described^34,47,49. […]

[2] = tested on: LT-HSCs; assay: Gene expression in LT-HSCs purified after 300cGy irradiation
Experimental: To gain some insights in to the molecular changes mediated by LHRH-Ant treatment on HSCs LT-HSCs were purified after 300cGy irradiation and expression of key genes associated with quiescence, proliferation, DNA damage response and apoptosis of HSCs was assessed. […] Importantly, both Bcl-2 and Mcl-1 have been implicated in regulating HSC quiescence and survival respectively^45,46.
Real time PCR: Reverse transcription-PCR was performed with QuantiTect reverse transcription kit (QIAGEN). For real-time PCR, specific primer and probe sets were obtained from Applied Biosystems as follows: β-actin (Mm01205647_g1); HPRT (Mm00446968_m1); AR (Mm00442688_m1); FSHR (Mm00442819_m1); LHCGR (Mm00442931_m1). PCR was done on ABI 7500 (Applied Biosystems) or Step-One Plus (Applied Biosystems) with TaqMan Universal PCR Master Mix (Applied Biosystems). Relative amounts of mRNA were calculated by the Ct method.
Statistics: Bars and error bars represent the mean+SEM for the various groups. For most experiments, nonparametric testing was performed if normal distribution could not be assumed. All tests performed are two sided. Statistical analysis between two groups was performed with the nonparametric, unpaired Mann-Whitney U test. Tests performed are two sided, except for gene category analysis. Differential expression of gene categories was computed using Fisher's method and the input p-value for each individual gene from a category is computed from a one sided test. Survival data were analyzed with the Mantel-Cox log-rank test. Parametric t test was used for FIG. 6H right panel. The experiments were not randomized and the investigators were not blinded to the group allocation during the experiments or when assessing the outcomes. To ensure adequate power for statistical analysis at least five samples per group were tested. In general variation within groups and between experiments was low, however to take into account inter-experimental variation all experiments were performed at least twice. To account for intra-experimental variation, particularly for in vitro studies, several wells per conditions were assessed with primary sample material coming from at least two different mice. No samples or animals were excluded from the analysis except for mouse peripheral blood analysis where outliers were detected prior to the analysis with two-sided Grubbs' test for outliers (GraphPad). All statistics were calculated and display graphs generated using GraphPad 6.

[3] = tested on: LT-HSCs; assay: Cell apoptosis by AnnexinV/DAPI staining after radiation exposure; settings: vs vehicle
From the text: as §1

For `CC(=O)N[C@H](Cc1ccc2ccccc2c1)C(=O)N[C@H](Cc1ccc(Cl)cc1)C(=O)N[C@H](Cc1cccnc1)C(=O)N[C@@H](CO)C(=O)N[C@@H](Cc1ccc(NC(=O)[C@@H]2CC(=O)NC(=O)N2)cc1)C(=O)N[C@H](Cc1ccc(NC(N)=O)cc1)C(=O)N[C@@H](CC(C)C)C(=O)N[C@@H](CCCCNC(C)C)C(=O)N1CCC[C@H]1C(=O)N[C@H](C)C(N)=O` [LHRH-Ant, Degarelix] (Ac-[d2Nal][dPhe(4-Cl)][d3Pal]S[Phe(4-NH2)](Dihydroorotyl(S))[dPhe(4-NHCONH2)]L[Lys(iPr)]P[dA]-NH2), the “LT-HSCs in G0” value ([1]; Poly I:C model) was “retained significantly more LT-HSCs in G0”, the “LT-HSCs in G0” value ([1]; SL-TBI model) was “retained significantly more LT-HSCs in G0” and the “expression level of Cdknla (p21)” value [2] was “significantly higher levels”. The “expression level of Hest” value [2] was “significantly higher levels”, the “expression of anti-apoptotic gene Bcl2” value [2] was “significantly increased” and the “expression of anti-apoptotic gene Mcl1” value [2] was “significantly increased”. The “expression of genes related to apoptosis” value ([2]; p=0.004) was “significant overexpression”, the “expression of genes related to quiescence” value ([2]; p=0.02) was “significant overexpression” and the “proportion of live LT-HSCs” value [3] was “significantly increased the proportion of live LT-HSCs”.
